Assay: Phase I clinical trial: treatment-emergent adverse events (patients, n (%)), dose limiting toxicity, MTD
Format: in vivo
[1] = Table 8: Total QD Dosing (N = 25)
[2] = Table 8: Total QDx3d QW (N = 14)

Experimental: Safety, maximum tolerated dose (MTD), pharmacokinetics (PK) and preliminary antitumor activity were evaluated.
Pharmacodynamic (PD) endpoints were evaluated in surrogate (peripheral blood cells [PBCs], skin) and tumor tissues for the phosphorylation of TORC1-dependent markers (4EBP1/S6), and TORC2-dependent markers (AKT/PRAS40).

CC(C)n1nc(-c2ccc3oc(N)nc3c2)c2c(N)ncnc21 [compound A]
Dose limiting toxicities (40 mg QW, 20 mg QDx3d QW and 13 mg QDxSd QW cohorts): Grade (G) 3 asthenia and G3 mucositis
adverse events (AEs) reported: reversibility (3 intermittent dosing regimens): reversible
lymphopenia, only reported Grade 3 or higher AE possibly related (3 regimens): 6%
Grade 3 or greater TEAE: Abdominal pain upper (QD Dosing (N = 25)): 1 (4%)
Grade 3 or greater TEAE: Anaemia (QD Dosing (N = 25)): 1 (4%)
Grade 3 or greater TEAE: Aspartate aminotransferase increased (QD Dosing (N = 25)): 0 (0%)
Grade 3 or greater TEAE: Asthenia (QD Dosing (N = 25)): 0 (0%)
Grade 3 or greater TEAE: Catheter related infection (QD Dosing (N = 25)): 1 (4%)
Grade 3 or greater TEAE: Cellulitis (QD Dosing (N = 25)): 1 (4%)
Grade 3 or greater TEAE: Diarrhoea (QD Dosing (N = 25)): 1 (4%)
Grade 3 or greater TEAE: Disease progression (QD Dosing (N = 25)): 0 (0%)
Grade 3 or greater TEAE: Enterocutaneous fistula (QD Dosing (N = 25)): 1 (4%)
Grade 3 or greater TEAE: Gamma-glutamyltransferase increased (QD Dosing (N = 25)): 0 (0%)
Grade 3 or greater TEAE: Gastroenteritis (QD Dosing (N = 25)): 0 (0%)
Grade 3 or greater TEAE: Hyperglycaemia (QD Dosing (N = 25)): 4 (16%)
Grade 3 or greater TEAE: Hypokalaemia (QD Dosing (N = 25)): 2 (8%)
Grade 3 or greater TEAE: Hyponatraemia (QD Dosing (N = 25)): 2 (8%)
Grade 3 or greater TEAE: Lymphopenia (QD Dosing (N = 25)): 2 (8%)
Grade 3 or greater TEAE: Pancreatitis acute (QD Dosing (N = 25)): 1 (4%)
Grade 3 or greater TEAE: Pleural effusion (QD Dosing (N = 25)): 1 (4%)
Grade 3 or greater TEAE: Pruritus (QD Dosing (N = 25)): 2 (8%)
Grade 3 or greater TEAE: Rash (QD Dosing (N = 25)): 7 (28%)
Grade 3 or greater TEAE: Rash macular (QD Dosing (N = 25)): 0 (0%)
Grade 3 or greater TEAE: Somnolence (QD Dosing (N = 25)): 1 (4%)
Grade 3 or greater TEAE: Thrombocytopenia (QD Dosing (N = 25)): 2 (8%)
Grade 3 or greater TEAE: Urinary tract infection (QD Dosing (N = 25)): 0 (0%)
Patients Reporting at Least One Grade 3 or Greater TEAE (QD Dosing (N = 25)): 15 (60%)
Grade 3 or greater TEAE: Abdominal pain upper (QDx3d QW (N = 14)): 0 (0%)
Grade 3 or greater TEAE: Anaemia (QDx3d QW (N = 14)): 0 (0%)
Grade 3 or greater TEAE: Aspartate aminotransferase increased (QDx3d QW (N = 14)): 0 (0%)
Grade 3 or greater TEAE: Asthenia (QDx3d QW (N = 14)): 1 (7%)
Grade 3 or greater TEAE: Catheter related infection (QDx3d QW (N = 14)): 0 (0%)
Grade 3 or greater TEAE: Cellulitis (QDx3d QW (N = 14)): 0 (0%)
Grade 3 or greater TEAE: Diarrhoea (QDx3d QW (N = 14)): 1 (7%)
Grade 3 or greater TEAE: Disease progression (QDx3d QW (N = 14)): 1 (7%)
Grade 3 or greater TEAE: Enterocutaneous fistula (QDx3d QW (N = 14)): 0 (0%)
Grade 3 or greater TEAE: Gamma-glutamyltransferase increased (QDx3d QW (N = 14)): 1 (7%)
Grade 3 or greater TEAE: Gastroenteritis (QDx3d QW (N = 14)): 1 (7%)
Grade 3 or greater TEAE: Hyperglycaemia (QDx3d QW (N = 14)): 1 (7%)
Grade 3 or greater TEAE: Hypokalaemia (QDx3d QW (N = 14)): 0 (0%)
Grade 3 or greater TEAE: Hyponatraemia (QDx3d QW (N = 14)): 0 (0%)
Grade 3 or greater TEAE: Lymphopenia (QDx3d QW (N = 14)): 1 (7%)
Grade 3 or greater TEAE: Pancreatitis acute (QDx3d QW (N = 14)): 0 (0%)
Grade 3 or greater TEAE: Pleural effusion (QDx3d QW (N = 14)): 0 (0%)
Grade 3 or greater TEAE: Pruritus (QDx3d QW (N = 14)): 0 (0%)
Grade 3 or greater TEAE: Rash (QDx3d QW (N = 14)): 0 (0%)
Grade 3 or greater TEAE: Rash macular (QDx3d QW (N = 14)): 1 (7%)
Grade 3 or greater TEAE: Somnolence (QDx3d QW (N = 14)): 0 (0%)
Grade 3 or greater TEAE: Thrombocytopenia (QDx3d QW (N = 14)): 0 (0%)
Grade 3 or greater TEAE: Urinary tract infection (QDx3d QW (N = 14)): 1 (7%)
Patients Reporting at Least One Grade 3 or Greater TEAE (QDx3d QW (N = 14)): 7 (50%)
Grade 3 or greater TEAE: Abdominal pain upper (QDx5d QW (N = 6)): 0 (0%)
Grade 3 or greater TEAE: Anaemia (QDx5d QW (N = 6)): 0 (0%)
Grade 3 or greater TEAE: Aspartate aminotransferase increased (QDx5d QW (N = 6)): 0 (0%)
Grade 3 or greater TEAE: Asthenia (QDx5d QW (N = 6)): 0 (0%)
Grade 3 or greater TEAE: Catheter related infection (QDx5d QW (N = 6)): 0 (0%)
Grade 3 or greater TEAE: Cellulitis (QDx5d QW (N = 6)): 0 (0%)
Grade 3 or greater TEAE: Diarrhoea (QDx5d QW (N = 6)): 0 (0%)
Grade 3 or greater TEAE: Disease progression (QDx5d QW (N = 6)): 0 (0%)
Grade 3 or greater TEAE: Enterocutaneous fistula (QDx5d QW (N = 6)): 0 (0%)
Grade 3 or greater TEAE: Gamma-glutamyltransferase increased (QDx5d QW (N = 6)): 0 (0%)
Grade 3 or greater TEAE: Gastroenteritis (QDx5d QW (N = 6)): 0 (0%)
Grade 3 or greater TEAE: Hyperglycaemia (QDx5d QW (N = 6)): 0 (0%)
Grade 3 or greater TEAE: Hypokalaemia (QDx5d QW (N = 6)): 0 (0%)
Grade 3 or greater TEAE: Hyponatraemia (QDx5d QW (N = 6)): 0 (0%)
Grade 3 or greater TEAE: Lymphopenia (QDx5d QW (N = 6)): 0 (0%)
Grade 3 or greater TEAE: Pancreatitis acute (QDx5d QW (N = 6)): 0 (0%)
Grade 3 or greater TEAE: Pleural effusion (QDx5d QW (N = 6)): 0 (0%)
Grade 3 or greater TEAE: Pruritus (QDx5d QW (N = 6)): 0 (0%)
Grade 3 or greater TEAE: Rash (QDx5d QW (N = 6)): 0 (0%)
Grade 3 or greater TEAE: Rash macular (QDx5d QW (N = 6)): 0 (0%)
Grade 3 or greater TEAE: Somnolence (QDx5d QW (N = 6)): 0 (0%)
Grade 3 or greater TEAE: Thrombocytopenia (QDx5d QW (N = 6)): 0 (0%)
Grade 3 or greater TEAE: Urinary tract infection (QDx5d QW (N = 6)): 0 (0%)
Patients Reporting at Least One Grade 3 or Greater TEAE (QDx5d QW (N = 6)): 0 (0%)
Grade 3 or greater TEAE: Abdominal pain upper (QW Dosing (N = 15)): 0 (0%)
Grade 3 or greater TEAE: Anaemia (QW Dosing (N = 15)): 0 (0%)
Grade 3 or greater TEAE: Aspartate aminotransferase increased (QW Dosing (N = 15)): 1 (7%)
Grade 3 or greater TEAE: Asthenia (QW Dosing (N = 15)): 0 (0%)
Grade 3 or greater TEAE: Catheter related infection (QW Dosing (N = 15)): 0 (0%)
Grade 3 or greater TEAE: Cellulitis (QW Dosing (N = 15)): 0 (0%)
Grade 3 or greater TEAE: Diarrhoea (QW Dosing (N = 15)): 1 (7%)
Grade 3 or greater TEAE: Disease progression (QW Dosing (N = 15)): 0 (0%)
Grade 3 or greater TEAE: Enterocutaneous fistula (QW Dosing (N = 15)): 0 (0%)
Grade 3 or greater TEAE: Gamma-glutamyltransferase increased (QW Dosing (N = 15)): 1 (7%)
Grade 3 or greater TEAE: Gastroenteritis (QW Dosing (N = 15)): 0 (0%)
Grade 3 or greater TEAE: Hyperglycaemia (QW Dosing (N = 15)): 0 (0%)
Grade 3 or greater TEAE: Hypokalaemia (QW Dosing (N = 15)): 0 (0%)
Grade 3 or greater TEAE: Hyponatraemia (QW Dosing (N = 15)): 0 (0%)
Grade 3 or greater TEAE: Lymphopenia (QW Dosing (N = 15)): 1 (7%)
Grade 3 or greater TEAE: Pancreatitis acute (QW Dosing (N = 15)): 0 (0%)
Grade 3 or greater TEAE: Pleural effusion (QW Dosing (N = 15)): 0 (0%)
Grade 3 or greater TEAE: Pruritus (QW Dosing (N = 15)): 0 (0%)
Grade 3 or greater TEAE: Rash (QW Dosing (N = 15)): 0 (0%)
Grade 3 or greater TEAE: Rash macular (QW Dosing (N = 15)): 0 (0%)
Grade 3 or greater TEAE: Somnolence (QW Dosing (N = 15)): 0 (0%)
Grade 3 or greater TEAE: Thrombocytopenia (QW Dosing (N = 15)): 0 (0%)
Grade 3 or greater TEAE: Urinary tract infection (QW Dosing (N = 15)): 0 (0%)
Patients Reporting at Least One Grade 3 or Greater TEAE (QW Dosing (N = 15)): 3 (20%)
Catheter site inflammation (Table 8: Total (N = 60)): 1 (2%)
Catheter site pain (Table 8: Total (N = 60)): 1 (2%)
Coagulopathy (Table 8: Total (N = 60)): 1 (2%)
Confusional state (Table 8: Total (N = 60)): 1 (2%)
Cough (Table 8: Total (N = 60)): 1 (2%)
DIARRHEA (Table 8: Total (N = 60)): 1 (2%)
Dizziness (Table 8: Total (N = 60)): 1 (2%)
Dyspnoea exertional (Table 8: Total (N = 60)): 1 (2%)
Eye infection (Table 8: Total (N = 60)): 1 (2%)
Fatigue (Table 8: Total (N = 60)): 1 (2%)
Gastritis (Table 8: Total (N = 60)): 1 (2%)
Gravitational oedema (Table 8: Total (N = 60)): 1 (2%)
Headache (Table 8: Total (N = 60)): 1 (2%)
Hyperbilirubinaemia (Table 8: Total (N = 60)): 1 (2%)
Hypertransaminasaemia (Table 8: Total (N = 60)): 1 (2%)
Hypertriglyceridaemia (Table 8: Total (N = 60)): 1 (2%)
Hypocalcaemia (Table 8: Total (N = 60)): 1 (2%)
Hypomagnesaemia (Table 8: Total (N = 60)): 1 (2%)
Hypotension (Table 8: Total (N = 60)): 1 (2%)
Insomnia (Table 8: Total (N = 60)): 1 (2%)
Low fever (Table 8: Total (N = 60)): 1 (2%)
Malaise (Table 8: Total (N = 60)): 1 (2%)
Nausea (Table 8: Total (N = 60)): 1 (2%)
Oral discomfort (Table 8: Total (N = 60)): 1 (2%)
Orthostatic hypotension (Table 8: Total (N = 60)): 1 (2%)
Palmar-plantar erythrodysaesthesia syndrome (Table 8: Total (N = 60)): 1 (2%)
Panniculitis (Table 8: Total (N = 60)): 1 (2%)
Platelet count decreased (Table 8: Total (N = 60)): 1 (2%)
Polyuria (Table 8: Total (N = 60)): 1 (2%)
Pyrexia (Table 8: Total (N = 60)): 1 (2%)
Rash (Table 8: Total (N = 60)): 1 (2%)
Rash macular (Table 8: Total (N = 60)): 1 (2%)
Skin discolouration (Table 8: Total (N = 60)): 1 (2%)
Skin exfoliation (Table 8: Total (N = 60)): 1 (2%)
Urinary tract infection (Table 8: Total (N = 60)): 1 (2%)
Urine tract infection (Table 8: Total (N = 60)): 1 (2%)
Vomiting (Table 8: Total (N = 60)): 1 (2%)
WEAKNESS (Table 8: Total (N = 60)): 1 (2%)
Weight decreased (Table 8: Total (N = 60)): 1 (2%)
Catheter site inflammation [1]: 0 (0%)
Catheter site pain [1]: 0 (0%)
Coagulopathy [1]: 1 (4%)
Confusional state [1]: 1 (4%)
Cough [1]: 1 (4%)
DIARRHEA [1]: 0 (0%)
Dizziness [1]: 1 (4%)
Dyspnoea exertional [1]: 1 (4%)
Eye infection [1]: 1 (4%)
Fatigue [1]: 0 (0%)
Gastritis [1]: 1 (4%)
Gravitational oedema [1]: 1 (4%)
Headache [1]: 0 (0%)
Hyperbilirubinaemia [1]: 0 (0%)
Hypertransaminasaemia [1]: 0 (0%)
Hypertriglyceridaemia [1]: 0 (0%)
Hypocalcaemia [1]: 1 (4%)
Hypomagnesaemia [1]: 0 (0%)
Hypotension [1]: 0 (0%)
Insomnia [1]: 1 (4%)
Low fever [1]: 0 (0%)
Malaise [1]: 0 (0%)
Nausea [1]: 0 (0%)
Oral discomfort [1]: 0 (0%)
Orthostatic hypotension [1]: 1 (4%)
Palmar-plantar erythrodysaesthesia syndrome [1]: 0 (0%)
Panniculitis [1]: 1 (4%)
Platelet count decreased [1]: 0 (0%)
Polyuria [1]: 1 (4%)
Pyrexia [1]: 0 (0%)
Rash [1]: 0 (0%)
Rash macular [1]: 0 (0%)
Skin discolouration [1]: 1 (4%)
Skin exfoliation [1]: 1 (4%)
Urinary tract infection [1]: 0 (0%)
Urine tract infection [1]: 0 (0%)
Vomiting [1]: 0 (0%)
WEAKNESS [1]: 0 (0%)
Weight decreased [1]: 1 (4%)
Catheter site inflammation [2]: 1 (7%)
Catheter site pain [2]: 1 (7%)
Coagulopathy [2]: 0 (0%)
Confusional state [2]: 0 (0%)
Cough [2]: 0 (0%)
DIARRHEA [2]: 0 (0%)
Dizziness [2]: 0 (0%)
Dyspnoea exertional [2]: 0 (0%)
Eye infection [2]: 0 (0%)
Fatigue [2]: 1 (7%)
Gastritis [2]: 0 (0%)
Gravitational oedema [2]: 0 (0%)
Headache [2]: 1 (7%)
Hyperbilirubinaemia [2]: 1 (7%)
Hypertransaminasaemia [2]: 1 (7%)
Hypertriglyceridaemia [2]: 1 (7%)
Hypocalcaemia [2]: 0 (0%)
Hypomagnesaemia [2]: 1 (7%)
Hypotension [2]: 1 (7%)
Insomnia [2]: 0 (0%)
Low fever [2]: 1 (7%)
Malaise [2]: 0 (0%)
Nausea [2]: 0 (0%)
Oral discomfort [2]: 0 (0%)
Orthostatic hypotension [2]: 0 (0%)
Palmar-plantar erythrodysaesthesia syndrome [2]: 1 (7%)
Panniculitis [2]: 0 (0%)
Platelet count decreased [2]: 1 (7%)
Polyuria [2]: 0 (0%)
Pyrexia [2]: 1 (7%)
Rash [2]: 0 (0%)
Rash macular [2]: 1 (7%)
Skin discolouration [2]: 0 (0%)
Skin exfoliation [2]: 0 (0%)
Urinary tract infection [2]: 1 (7%)
Urine tract infection [2]: 0 (0%)
Vomiting [2]: 0 (0%)
WEAKNESS [2]: 0 (0%)
